According to ChEMBL document CHEMBL4680259, “Discovery of bazedoxifene analogues targeting glycoprotein 130” (Eur J Med Chem, 2020):

Columns and labels:
A549 = assay: Antiproliferative activity against human A549 cells assessed as cell growth inhibition measured after 24 hrs by MTT assay; assay type: functional, cell-based; details: A549, 24 h
[1] = biological target: T1, Interleukin-6 receptor subunit beta (Homo sapiens) (UniProt P40189); assay: Binding affinity to immobilized GP130 (unknown origin) assessed as response unit at 20 uM by SPR analysis
T1 sequence (whole entry): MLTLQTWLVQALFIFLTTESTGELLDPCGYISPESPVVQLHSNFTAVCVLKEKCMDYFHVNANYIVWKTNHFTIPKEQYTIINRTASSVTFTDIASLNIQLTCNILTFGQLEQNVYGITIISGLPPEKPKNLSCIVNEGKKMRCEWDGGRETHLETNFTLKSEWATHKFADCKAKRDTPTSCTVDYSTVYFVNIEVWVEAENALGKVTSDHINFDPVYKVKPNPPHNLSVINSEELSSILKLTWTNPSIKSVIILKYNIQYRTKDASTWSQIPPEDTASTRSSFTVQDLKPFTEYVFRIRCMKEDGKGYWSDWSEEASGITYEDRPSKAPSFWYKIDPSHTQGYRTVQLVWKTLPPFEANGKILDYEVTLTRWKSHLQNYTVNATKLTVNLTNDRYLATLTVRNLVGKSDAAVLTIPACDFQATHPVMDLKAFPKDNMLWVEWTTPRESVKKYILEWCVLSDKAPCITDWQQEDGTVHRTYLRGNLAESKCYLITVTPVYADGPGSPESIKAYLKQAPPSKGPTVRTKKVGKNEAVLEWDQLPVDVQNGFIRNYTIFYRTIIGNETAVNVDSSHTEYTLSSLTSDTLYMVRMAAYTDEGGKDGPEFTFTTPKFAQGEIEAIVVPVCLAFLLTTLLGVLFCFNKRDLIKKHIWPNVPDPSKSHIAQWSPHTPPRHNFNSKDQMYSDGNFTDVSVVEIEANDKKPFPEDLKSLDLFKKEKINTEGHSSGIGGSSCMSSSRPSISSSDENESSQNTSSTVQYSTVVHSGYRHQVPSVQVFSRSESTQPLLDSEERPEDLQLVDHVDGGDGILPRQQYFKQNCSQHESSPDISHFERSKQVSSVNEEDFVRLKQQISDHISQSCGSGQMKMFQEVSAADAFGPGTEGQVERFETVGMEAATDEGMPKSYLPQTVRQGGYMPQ

SMILES: NC(=O)N1N=C(c2ccc(C(F)(F)F)cc2)C[C@H]1c1cn(Cc2ccc(OCCN3CCCCCC3)cc2)c2ccc(Br)cc12
- IC50 (A549): 3.04 µM
- Activity [1]: 37.4 RU

SMILES: COc1ccccc1C1=NN(C(N)=O)C(c2cn(Cc3ccc(OCCN4CCCCC4)cc3)c3ccc(Br)cc23)C1 (stereo not given)
- IC50 (A549): 6.98 µM
- Activity [1]: 36.4 RU

SMILES: COc1cccc(C2=NN(C(N)=O)C(c3cn(Cc4ccc(OCCN5CCCCC5)cc4)c4ccc(Br)cc34)C2)c1 (stereo not given)
- IC50 (A549): 6.23 µM
- Activity [1]: 19.6 RU

SMILES: NC(=O)N1N=C(c2cccc(C(F)(F)F)c2)CC1c1cn(Cc2ccc(OCCN3CCCCC3)cc2)c2ccc(Br)cc12 (stereo not given)
- IC50 (A549): 5.42 µM
- Activity [1]: 10.2 RU

SMILES: COc1cc(C2=NN(C(N)=O)C(c3cn(Cc4ccc(OCCN5CCCCC5)cc4)c4ccc(Br)cc34)C2)cc(OC)c1OC (stereo not given)
- IC50 (A549): 6.96 µM
- Activity [1]: 32.7 RU

SMILES: CN(C)CCOc1ccc(Cn2cc(C3CC(c4ccc(C(F)(F)F)cc4)=NN3C(N)=O)c3cc(Br)ccc32)cc1 (stereo not given)
- IC50 (A549): 6.21 µM
- Activity [1]: 22.7 RU

SMILES: COc1ccc2c(c1)c(C1CC(c3ccc(F)cc3)=NN1C(N)=O)cn2Cc1ccc(OCCN2CCCCC2)cc1 (stereo not given)
- IC50 (A549): 9.47 µM
- Activity [1]: 10.9 RU

SMILES: COc1cc(C2=NN(C(N)=O)C(c3cn(Cc4ccc(OCCN5CCCCC5)cc4)c4ccccc34)C2)cc(OC)c1OC (stereo not given)
- IC50 (A549): 11.8 µM
- Activity [1]: 21.7 RU

SMILES: COc1ccc2c(c1)c(C1CC(c3ccc(C(F)(F)F)cc3)=NN1C(N)=O)cn2Cc1ccc(OCCN2CCCCC2)cc1 (stereo not given)
- IC50 (A549): 6.18 µM
- Activity [1]: 10.4 RU

SMILES: NC(=O)N1N=C(c2ccc(C(F)(F)F)cc2)CC1c1cn(Cc2ccc(OCCN3CCCCC3)cc2)c2ccccc12 (stereo not given)
- IC50 (A549): 5.6 µM
- Activity [1]: 8.2 RU

SMILES: COc1ccc2c(c1)c(C1CC(c3cc(OC)c(OC)c(OC)c3)=NN1C(N)=O)cn2Cc1ccc(OCCN2CCCCC2)cc1 (stereo not given)
- IC50 (A549): 12.2 µM
- Activity [1]: 16.2 RU

SMILES: NC(=O)N1N=C(c2ccc(F)cc2)CC1c1cn(Cc2ccc(OCCN3CCCCC3)cc2)c2ccc(Br)cc12 (stereo not given)
- IC50 (A549): 6.8 µM
- Activity [1]: 19.9 RU

SMILES: NC(=O)N1N=C(c2ccc(F)cc2)CC1c1cn(Cc2ccc(OCCN3CCCCC3)cc2)c2ccccc12 (stereo not given)
- IC50 (A549): 7.44 µM
- Activity [1]: 21 RU

SMILES: NC(=O)N1N=C(c2ccc(C(F)(F)F)cc2)CC1c1cn(Cc2ccc(OCCN3CCCCC3)cc2)c2ccc(Br)cc12 (stereo not given)
- IC50 (A549): 4.69 µM
- Activity [1]: 19.9 RU

SMILES: NC(=O)N1N=C(c2ccc(C(F)(F)F)cc2)C[C@@H]1c1cn(Cc2ccc(OCCN3CCCCCC3)cc2)c2ccc(Br)cc12
- IC50 (A549): 6.16 µM
- Activity [1]: 24.2 RU

SMILES: NC(=O)N1N=C(c2cccc(Cl)c2)CC1c1cn(Cc2ccc(OCCN3CCCCC3)cc2)c2ccc(Br)cc12 (stereo not given)
- IC50 (A549): 5.9 µM
- Activity [1]: 27.4 RU

SMILES: COc1ccc(C2=NN(C(N)=O)C(c3cn(Cc4ccc(OCCN5CCCCC5)cc4)c4ccc(OC)cc34)C2)cc1 (stereo not given)
- IC50 (A549): 14.4 µM
- Activity [1]: 28.8 RU

SMILES: COc1ccc(C2=NN(C(N)=O)C(c3cn(Cc4ccc(OCCN5CCCCC5)cc4)c4ccc(Br)cc34)C2)cc1OC (stereo not given)
- IC50 (A549): 7.43 µM
- Activity [1]: 30.1 RU

SMILES: NC(=O)N1N=C(c2ccc(Cl)cc2)CC1c1cn(Cc2ccc(OCCN3CCCCC3)cc2)c2ccc(Br)cc12 (stereo not given)
- IC50 (A549): 5.41 µM
- Activity [1]: 29.2 RU

SMILES: NC(=O)N1N=C(c2ccc(C(F)(F)F)cc2)CC1c1cn(Cc2ccc(OCCC3CCNCC3)cc2)c2ccc(Br)cc12 (stereo not given)
- IC50 (A549): 4.62 µM
- Activity [1]: 35 RU

SMILES: CCCCCCCOc1ccc(Cn2cc(C3CC(c4ccc(C(F)(F)F)cc4)=NN3C(N)=O)c3cc(Br)ccc32)cc1 (stereo not given)
- IC50 (A549): > 50 µM
- Activity [1]: 0.6 RU

SMILES: COc1ccc(C2=NN(C(N)=O)C(c3cn(Cc4ccc(OCCN5CCCCC5)cc4)c4ccccc34)C2)cc1 (stereo not given)
- IC50 (A549): 12.7 µM
- Activity [1]: 33.3 RU

SMILES: NC(=O)N1N=C(c2ccc(Br)cc2)CC1c1cn(Cc2ccc(OCCN3CCCCC3)cc2)c2ccc(Br)cc12 (stereo not given)
- IC50 (A549): 6.73 µM
- Activity [1]: 47.3 RU

SMILES: COc1ccc(C2=NN(C(N)=O)C(c3cn(Cc4ccc(OCCN5CCCCC5)cc4)c4ccc(Br)cc34)C2)cc1 (stereo not given)
- IC50 (A549): 5.9 µM
- Activity [1]: 26.2 RU

SMILES: NC(=O)N1N=C(c2ccc(C(F)(F)F)cc2)CC1c1cn(Cc2ccc(OCCN3CCOCC3)cc2)c2ccc(Br)cc12 (stereo not given)
- IC50 (A549): 9.44 µM
- Activity [1]: 8.2 RU
